Drawing on patent US5026711A, “4-amino quinolines and naphthyridines and their use as medicines” (priority 1988, dated 1991), this text covers IC50 for 40 molecules.

Experiment [1] deals with T1, benzodiazepine receptors of the peripheral type (Felis catus, UniProt A0ABI7ZQW3).
T1 sequence (A0ABI7ZQW3 15-183): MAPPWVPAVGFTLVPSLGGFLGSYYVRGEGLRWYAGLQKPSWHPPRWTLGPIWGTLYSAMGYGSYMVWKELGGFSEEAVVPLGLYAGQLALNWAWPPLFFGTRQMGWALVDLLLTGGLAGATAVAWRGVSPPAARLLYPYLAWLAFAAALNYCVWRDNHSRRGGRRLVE
Description: inhibition of specific binding of [3H] PK11195 to peripheral type benzodiazepine receptors, membrane proteins of cat brain. Particulars: [3H] PK11195 0.5 nM, cat brain membranes, 4° C., 2h30; read-out: IC50 (peripheral). The method, then:
The method is similar to that described by J. Benavides et al. in Brain Res. Bull. 13 p. 69-77 (1984) and references cited therein.
Suspensions of membrane proteins of cat brain were prepared as described by J. Benavides.
The assays of inhibition of the binding of [^3 H]
Non specific binding was defined as the amount of [^3 H]

Experiment [2] concerns the target central benzodiazepine receptors. The experiment can be described thus: inhibition of specific binding of [3H] flunitrazepam to central benzodiazepine receptors, rat brain. Particulars: 4° C., pH 7.4. How it is done: (b) determination of the concentration of the product under study inhibiting 50% of the specific binding of flunitrazepam to the central receptors.
The brains of rats were removed after decapitation and ground, then placed in suspension in an aqueous solution of sucrose (0.32M). The mixture is centrifuged and the pellet is resuspended to give a homogenous suspension in a TRIS-HCl buffered solution (50 mM; pH=7.4). Aliquots of this suspension are incubated at 4° C. after addition of [^3 H] flunitrazepam, alone or with increasing amounts of the compound to be tested.

As for `CN(C(=O)CNc1c(C(=O)c2ccccc2)cnc2ccncc12)c1ccc(Cl)cc1` [compound 26409], the IC50 was 84 nM in experiment [1] and over 10000 nM in experiment [2].

Consider `CN(CC(=O)N(C)c1ccc(Cl)cc1)c1c(C(=O)c2ccccc2)cnc2nc(Cl)ccc12` [compound 26578], for which the IC50 in experiment [1] turned out to be 330 nM; in experiment [2], 48900 nM.

Consider `CCCN(CCC)C(=O)C(C)Nc1c(C(=O)OCC)cnc2cc(Cl)ccc12` (single isomer, unassigned) [compound 26378], for which the 50% inhibitory concentration (IC50) in experiment [1] was 1 nM; in experiment [2] it was over 20000 nM.

Turning to `CCCCN(CCCC)C(=O)C(C)Nc1c(C(=O)OCC)cnc2cc(C(F)(F)F)ccc12` (centres unmarked) [compound 26362], the 50% inhibitory concentration (IC50) in experiment [1] is 3 nM; in experiment [2], over 20000 nM.

Consider `CC(Nc1c(C(=O)c2ccccc2)cnc2nc(Cl)ccc12)C(=O)N(C)c1ccc(Cl)cc1` (centres unmarked) [compound 26517], for which the IC50 in experiment [1] was 27 nM; in experiment [2] it was over 10000 nM.

Consider `CCCN(CCC)C(=O)CNc1c(C(=O)c2ccccc2)cnc2ccc(Cl)nc12` [compound 26286], for which the IC50 in experiment [1] turned out to be 6 nM; in experiment [2], 5480 nM.

Regarding `CCCCCN(CCCCC)C(=O)CNc1c(C(=O)c2ccccc2)cnc2cccnc12` [compound 26332], the IC50 in experiment [1] is 29 nM; in experiment [2], over 10000 nM.

As to `CN(C(=O)CNc1c(C(=O)c2ccccc2)cnc2cccnc12)c1ccccc1` [compound 26803], the values for the IC50 in experiment [1] and in experiment [2] were 7.1 nM and 5430 nM, respectively.

In the case of `CCCN(CCC)C(=O)CNc1c(C(=O)c2ccccc2)cnc2ccc(Cl)cc12` [compound 26199], the IC50 was determined as 13 nM in experiment [1] and 1640 nM in experiment [2].

`CCCN(CCC)C(=O)C(Nc1c(C(=O)OCC)cnc2cc(C(F)(F)F)ccc12)c1ccccc1` (centres unmarked) [compound 26275]: the IC50 in experiment [1] is 22 nM; in experiment [2], over 20000 nM.

Take `CCCN(C(=O)CNc1c(C(=O)c2ccccc2)cnc2cc(Cl)ccc12)c1ccc(Cl)cc1` [compound 26397]: the results for the 50% inhibitory concentration (IC50) in experiment [1] and in experiment [2] were 4 nM and over 10000 nM, respectively.

Turning to `CN(C(=O)CNc1c(C(=O)c2ccccc2)cnc2cnccc12)c1ccc(Cl)cc1` [compound 26919], the values for the half-inhibitory concentration (IC50) in experiment [1] and in experiment [2] were 52 nM and over 10000 nM, respectively.

Turning to `CCCN(CCC)C(=O)C(C)Nc1c(C(=O)OCC)cnc2cc(OC)c(OC)cc12` (centres unmarked) [compound 26641], the IC50 is 356 nM in experiment [1] and over 20000 nM in experiment [2].

Turning to `CCCN(CCC)C(=O)C(C)Nc1c(C(=O)OCC)cnc2cc(F)ccc12` (centres unmarked) [compound 26920], the IC50 in experiment [1] is 18 nM; in experiment [2], over 20000 nM.

Regarding `CCCN(CCC)C(=O)C(C)Nc1c(C(=O)OCC)cnc2cc(OC)ccc12` (centres unmarked) [compound 26522], the IC50 was 11 nM in experiment [1] and over 20000 nM in experiment [2].

Consider `COc1ccc(N(C)C(=O)CNc2c(C(=O)c3ccccc3)cnc3cc(Br)ccc23)cc1` [compound 27195], for which the IC50 in experiment [1] was 1 nM; in experiment [2], over 10000 nM.

Take `CN(C(=O)CNc1c(C(=O)c2ccccc2)cnc2cc(F)ccc12)c1ccc(Cl)cc1` [compound 26706]: the half-inhibitory concentration (IC50) was 4 nM in experiment [1] and over 10000 nM in experiment [2].

For `CCCN(CCC)C(=O)C(C)Nc1c(C(=O)OCC)cnc2c(Cl)cccc12` (centres unmarked) [compound 26351], the IC50 in experiment [1] worked out at 6 nM; in experiment [2] it was 30000 nM.

Regarding `CCCN(CCC)C(=O)C(C)Nc1c(C(=O)OCC)cnc2nc(Cl)ccc12` (centres unmarked) [compound 26493], the half-inhibitory concentration (IC50) in experiment [1] was 12 nM; in experiment [2], over 20000 nM.

As for `CCCN(CCC)C(=O)C(C)Nc1c(C(=O)O)cnc2cc(Cl)ccc12` (centres unmarked) [compound 26632], the 50% inhibitory concentration (IC50) in experiment [1] was 101 nM; in experiment [2] it was over 20000 nM.

On to `CCCN(CCC)C(=O)C(CC)Nc1c(C(=O)OCC)cnc2cc(C(F)(F)F)ccc12` (centres unmarked) [compound 26306], for which the results for the half-maximal inhibitory concentration (IC50) in experiment [1] and in experiment [2] were 11 nM and over 20000 nM, respectively.

For `COc1ccc2ncc(C(=O)c3ccccc3)c(NCC(=O)N(C)c3ccc(Cl)cc3)c2n1` [compound 26698], the values for the half-inhibitory concentration (IC50) in experiment [1] and in experiment [2] were 1.95 nM and over 10000 nM, respectively.

With `CC(Nc1c(C(=O)c2ccccc2)cnc2cc(Cl)ccc12)C(=O)N(C)c1ccc(Cl)cc1` (centres unmarked) [compound 26450], the IC50 was 2 nM in experiment [1] and over 10000 nM in experiment [2].

For `CCOc1ccc(N(C)C(=O)CNc2c(C(=O)c3ccccc3)cnc3cc(Cl)ccc23)cc1` [compound 27271], the results for the concentration for half-maximal inhibition (IC50) in experiment [1] and in experiment [2] were 68 nM and over 10000 nM, respectively.

Consider `CCCN(CCC)C(=O)C(C)Nc1c(C(=O)OCC)cnc2cccc(Cl)c12` (centres unmarked) [compound 26399], for which the values for the half-inhibitory concentration (IC50) in experiment [1] and in experiment [2] were 7 nM and 12700 nM, respectively.

As to `CCCN(CCC)C(=O)C(C)Nc1c(C(=O)OCC)c(C)nc2ccc(Cl)cc12` (centres unmarked) [compound 26319], the figures for the IC50 in experiment [1] and in experiment [2] were 8 nM and 14000 nM, respectively.

Turning to `CCCN(CCC)C(=O)C(C)Nc1c(C(=O)OCC)cnc2cc(C)c(C)cc12` (centres unmarked) [compound 26421], the results for the IC50 in experiment [1] and in experiment [2] were 5 nM and 53000 nM, respectively.

Turning to `CN(C(=O)CNc1c(C(=O)c2ccccc2)cnc2ccc(Cl)cc12)c1ccc(Cl)cc1` [compound 26620], the values for the IC50 in experiment [1] and in experiment [2] were 2.8 nM and over 10000 nM, respectively.

With `CCCN(CCC)C(=O)CNc1c(C(=O)c2ccccc2)cnc2c(Cl)cccc12` [compound 26307], the figures for the IC50 in experiment [1] and in experiment [2] were 175 nM and over 10000 nM, respectively.

`CN(C(=O)CNc1c(C(=O)c2ccccc2)c[n+]([O-])c2cccnc12)c1ccc(Cl)cc1` [compound 26838]: the half-inhibitory concentration (IC50) in experiment [1] came out at 10.8 nM; in experiment [2] it was 7650 nM.

Turning to `CCCN(CCC)C(=O)C(C)N(C)c1c(C(=O)OCC)cnc2cc(Cl)ccc12` (centres unmarked) [compound 26619], the half-inhibitory concentration (IC50) in experiment [1] was 132 nM; in experiment [2], over 20000 nM.

As to `CN(C(=O)CNc1c(C(=O)c2ccccc2)cnc2ccc(Cl)nc12)c1ccc(Cl)cc1` [compound 26336], the figures for the IC50 in experiment [1] and in experiment [2] were 0.3 nM and 2120 nM, respectively.

For `CN(CC(=O)N(C)c1ccc(Cl)cc1)c1c(C(=O)c2ccccc2)cnc2cccnc12` [compound 26710], the half-maximal inhibitory concentration (IC50) in experiment [1] is 3.2 nM; in experiment [2], over 10000 nM.

Consider `CCCN(CCC)C(=O)CNc1c(C(=O)c2ccccc2)cnc2cccc(Cl)c12` [compound 26581], for which the 50% inhibitory concentration (IC50) was 43 nM in experiment [1] and over 10000 nM in experiment [2].

Turning to `CN(C(=O)CNc1c(C(=O)c2ccccc2)cnc2cc(C(F)(F)F)ccc12)c1ccc(Cl)cc1` [compound 26794], the IC50 in experiment [1] was 11 nM; in experiment [2] it was over 10000 nM.

In the case of `Cc1ccc(N(C)C(=O)CNc2c(C(=O)c3ccccc3)cnc3cccnc23)cc1` [compound 26980], the IC50 stood at 1.31 nM in experiment [1] and 9750 nM in experiment [2].

Consider `CCCCN(CCCC)C(=O)CNc1c(C(=O)c2ccccc2)cnc2cc(Cl)ccc12` [compound 26386], for which the IC50 in experiment [1] was 16 nM; in experiment [2], over 10000 nM.

`CCN(CC)C(=O)CNc1c(C(=O)c2ccccc2)cnc2cc(Cl)ccc12` [compound 26485]: the IC50 in experiment [1] was 40 nM; in experiment [2] it was over 10000 nM.

Take `CN(C(=O)CNc1c(C(=O)c2ccccc2)cnc2nc(Cl)ccc12)c1ccccc1Cl` [compound 26640]: the 50% inhibitory concentration (IC50) in experiment [1] amounted to 46 nM; in experiment [2] it was 3550 nM.

In the case of `COc1ccc(N(C)C(=O)CNc2c(C(=O)c3ccccc3)cnc3cc(Cl)ccc23)cc1` [compound 27196], the 50% inhibitory concentration (IC50) in experiment [1] is 0.8 nM; in experiment [2], over 10000 nM.
